Our source for the IC50 values is ChEMBL document CHEMBL5729489, “Naphthyridinone derivatives and their use in the treatment of arrhythmia” (2022).

The structures appear in SMILES notation.

The target in this assay is T1, Kir3.1/Kir3.4 (Homo sapiens, UniProt P48544+P48549).
T1 sequence (P48549 whole entry): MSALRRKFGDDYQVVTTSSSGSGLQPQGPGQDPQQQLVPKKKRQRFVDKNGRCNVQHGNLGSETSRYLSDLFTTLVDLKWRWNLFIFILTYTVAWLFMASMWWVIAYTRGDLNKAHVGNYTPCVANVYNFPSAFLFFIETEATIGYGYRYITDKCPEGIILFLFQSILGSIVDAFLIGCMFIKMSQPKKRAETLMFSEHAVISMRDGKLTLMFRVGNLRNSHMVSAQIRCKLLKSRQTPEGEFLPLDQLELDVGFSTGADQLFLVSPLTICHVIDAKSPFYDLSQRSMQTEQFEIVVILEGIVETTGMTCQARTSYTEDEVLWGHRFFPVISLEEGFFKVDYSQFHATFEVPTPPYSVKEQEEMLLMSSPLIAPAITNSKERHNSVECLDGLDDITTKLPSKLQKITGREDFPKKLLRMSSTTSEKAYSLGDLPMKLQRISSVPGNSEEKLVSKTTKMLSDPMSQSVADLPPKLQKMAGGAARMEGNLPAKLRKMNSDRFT
T1 sequence (P48544 whole entry): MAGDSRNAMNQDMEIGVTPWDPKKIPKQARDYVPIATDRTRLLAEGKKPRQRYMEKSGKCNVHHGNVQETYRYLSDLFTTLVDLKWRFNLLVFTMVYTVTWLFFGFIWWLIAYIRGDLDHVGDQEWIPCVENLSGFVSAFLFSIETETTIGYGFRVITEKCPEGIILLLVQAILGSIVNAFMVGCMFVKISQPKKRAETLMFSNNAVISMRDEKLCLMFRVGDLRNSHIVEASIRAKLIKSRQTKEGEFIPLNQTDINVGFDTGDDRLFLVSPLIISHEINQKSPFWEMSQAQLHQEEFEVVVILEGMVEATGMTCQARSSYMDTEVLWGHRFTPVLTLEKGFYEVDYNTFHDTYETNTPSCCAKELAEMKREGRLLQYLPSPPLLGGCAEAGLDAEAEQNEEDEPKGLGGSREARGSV
Put plainly: IonWorks Quattro system: Quattro is controlled using IonWorks v2 software to perform the following steps:a. Add 3.5 ul cells plus 3.5 ul external buffer to wells of Quattro Patch Plateb. Circulate amphotericin B and internal buffer onto cellsc. Apply the following voltage protocol: Pulse 1: 15 mV for 300 milliseconds (ms), followed by Pulse 2: −120 mV for 400 ms, then Pulse 3: −15 mV for 400 ms, and finally Pulse 4: −120 mV to 40 mV over 500 ms (this is a voltage ramp).d. Measure magnitude of inward potassium current at time point between 1200-1220 ms from start of Pulse 1 (i.e. during the voltage ramp phase).e. Add 3.5 ul of diluted compounds (or DMSO) to wells and repeat steps c-d (final compound concentrations are 50 uM to 0.1 uM, for potent compounds 0.5 uM to 0.01 uM and each concentration is tested in quadruplicate—i.e. in 4 separate wells).f. The difference between current magnitude pre vs. post-compound gives a measure of GIRK1/4 inhibition.7. Data analysis:IC50 values are calculated by plotting the percentage of current inhibition (normalized to the DMSO-only control) as a function of compound concentration using standard data analysis software.

Regarding `CS(=O)(=O)NCCOc1ncc(Cl)c2c1c(=O)cc(CO)n2-c1c(Cl)cccc1Cl`, the IC50 (in general, the concentration that inhibits the measured activity by half) was 99 nM. The result for `O=c1cc(CO)n(-c2c(Cl)cccc2Cl)c2c(Cl)cnc(OCC(CO)CO)c12` reads 351 nM.
